Experimental data: the supplement of paper PMC10307832

Legend:
Assay in all cases: relative viability (nuclei count vs DMSO), 5 days (fraction); higher = more cells survive
[1] = compound: CC1=C(C(=O)N2C=CSC2=N1)CCN3CCC(=C(C4=CC=CC=C4)C5=CC=C(C=C5)F)CC3 + CC(C)C[C@H](NC(=O)[C@H](Cc1ccccc1)NC(=O)c1cnccn1)B(O)O [Bortezomib] (partner 0.002 µM)
Procedure, shortened: (§1)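 Five library-drug doses in √10 steps were combined with a fixed anchor-drug dose, or a single drug was given alone, by pin tool to lung cancer cell lines in 1536-well plates the day after seeding. Nuclei were stained and counted after 5 days. Relative viability is the nuclei count in treated wells over that in vehicle wells, taken as the median of duplicate plates.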

[2] = compound: CC1=C(C(=O)N2C=CSC2=N1)CCN3CCC(=C(C4=CC=CC=C4)C5=CC=C(C=C5)F)CC3 + Cc1cc(Nc2cc(N3CCN(C)CC3)nc(Sc3ccc(NC(=O)C4CC4)cc3)n2)n[nH]1 [Tozasertib] (partner 0.1 µM)
Procedure, shortened: as §1

[3] = compound: CC1=C(C(=O)N2C=CSC2=N1)CCN3CCC(=C(C4=CC=CC=C4)C5=CC=C(C=C5)F)CC3 + NC(=O)Nc1cc(-c2cccc(F)c2)sc1C(=O)N[C@H]1CCCNC1 [AZD7762] (partner 0.2 µM)
Procedure, shortened: as §1

[4] = compound: CC1=C(C(=O)N2C=CSC2=N1)CCN3CCC(=C(C4=CC=CC=C4)C5=CC=C(C=C5)F)CC3 + Nc1ncn([C@H]2C[C@H](O)[C@@H](CO)O2)c(=O)n1 [Decitabine] (partner 2 µM)
Procedure, shortened: as §1

Row | Cell Line | relative viability ([1]; first compound 0.253 µM) | relative viability ([1]; first compound 0.8 µM) | relative viability ([1]; first compound 2.53 µM) | relative viability ([1]; first compound 8 µM) | relative viability ([2]; first compound 0.08 µM) | relative viability ([2]; first compound 0.253 µM) | relative viability ([2]; first compound 0.8 µM) | relative viability ([2]; first compound 2.53 µM) | relative viability ([2]; first compound 8 µM) | relative viability ([3]; first compound 0.08 µM) | relative viability ([3]; first compound 0.253 µM) | relative viability ([3]; first compound 0.8 µM) | relative viability ([3]; first compound 2.53 µM) | relative viability ([3]; first compound 8 µM) | relative viability ([4]; first compound 0.08 µM) | relative viability ([4]; first compound 0.253 µM) | relative viability ([4]; first compound 0.8 µM) | relative viability ([4]; first compound 2.53 µM) | relative viability ([4]; first compound 8 µM) | relative viability ([1]; first compound 0.08 µM)
1 | NCI-H441 | 0.447 | 0.464 | 0.468 | 0.215 | 0.67 | 0.754 | 0.657 | 0.688 | 0.498 | 0.859 | 1.12 | 1.23 | 1.07 | 0.671 | 0.263 | 0.255 | 0.242 | 0.247 | 0.239 | –
2 | A-427 | 1.08 | 0.984 | 1.03 | 0.834 | 0.179 | 0.19 | 0.175 | 0.204 | 0.21 | 0.675 | 0.678 | 0.67 | 0.633 | 0.674 | 0.452 | 0.654 | 0.546 | 0.592 | 0.595 | 1.07
3 | NCI-H838 | 0.581 | 0.654 | 0.824 | 0.696 | 0.267 | 0.286 | 0.27 | 0.266 | 0.244 | 0.839 | 0.904 | 0.992 | 0.958 | 0.806 | 0.488 | 0.459 | 0.472 | 0.547 | 0.414 | 0.591
4 | NCI-H322M | 1.28 | 1.24 | 1.35 | 1.09 | 0.487 | 0.468 | 0.443 | 0.561 | 0.529 | 0.601 | 0.606 | 0.563 | 0.516 | 0.543 | 0.719 | 0.781 | 0.688 | 0.814 | 0.767 | 1.3
5 | EKVX | 0.923 | 1.18 | 1.01 | 0.684 | 0.385 | 0.444 | 0.35 | 0.334 | 0.359 | 0.602 | 0.753 | 0.808 | 0.553 | 0.641 | 0.345 | 0.335 | 0.376 | 0.366 | 0.386 | 0.826
6 | HOP-62 | 0.628 | 1.03 | 0.922 | 0.323 | 0.402 | 0.369 | 0.305 | 0.323 | 0.258 | 0.445 | 0.51 | 0.522 | 0.534 | 0.323 | 0.2 | 0.193 | 0.204 | 0.213 | 0.162 | 0.731
7 | PC-14 | 0.759 | 1.01 | 1.09 | 0.592 | 0.489 | 0.675 | 0.603 | 0.681 | 0.481 | 0.373 | 0.312 | 0.369 | 0.371 | 0.246 | 0.205 | 0.241 | 0.201 | 0.237 | 0.176 | 0.9
8 | NCI-H2347 | 1.18 | 0.957 | 1.04 | 0.895 | 0.439 | 0.554 | 0.525 | 0.471 | 0.487 | 0.603 | 0.692 | 0.773 | 0.895 | 0.553 | 0.375 | 0.693 | 0.667 | 0.621 | 0.513 | –
9 | NCI-H727 | 1.03 | 0.997 | 0.858 | 0.633 | 0.511 | 0.589 | 0.625 | 0.739 | 0.598 | 0.561 | 0.744 | 0.715 | 0.575 | 0.553 | 0.861 | 0.974 | 0.888 | 1.03 | 0.792 | 0.802
10 | EMC-BAC-2 | 1.13 | 1.07 | 1.07 | 0.705 | 0.192 | 0.278 | 0.275 | 0.278 | 0.261 | 1.18 | 0.93 | 1.01 | 1.13 | 1.01 | 1.14 | – | 1.01 | 1.03 | 0.906 | 0.902
11 | NCI-H1993 | – | 0.919 | 1.5 | 0.987 | 0.627 | 0.502 | 0.557 | 0.64 | 0.495 | 0.501 | 0.632 | 0.726 | 0.73 | 0.63 | 0.635 | 0.644 | 0.6 | 0.64 | 0.576 | 0.834
12 | ABC-1 | 0.297 | 0.252 | 0.244 | 0.269 | 0.15 | 0.181 | 0.165 | 0.206 | 0.174 | 0.751 | 0.746 | 0.791 | 0.766 | 0.677 | 1.2 | – | 1.04 | 1.18 | 1.02 | 0.313
13 | PC-3 [JPC-3] | 0.895 | 0.969 | 1.01 | 0.642 | 0.924 | 0.821 | 0.91 | 0.988 | 0.66 | 0.768 | – | 0.815 | 0.78 | 0.736 | 0.826 | – | 0.932 | 0.845 | 0.846 | 0.811
14 | HARA | 1.47 | 1.13 | 1.21 | 1.05 | 0.111 | 0.117 | 0.104 | 0.111 | 0.114 | 0.371 | 0.347 | 0.281 | 0.296 | 0.303 | 0.639 | 0.664 | 0.526 | 0.515 | 0.427 | 1.08
15 | NCI-H650 | 0.696 | 0.877 | 0.817 | 0.599 | 0.695 | 0.801 | 0.748 | 0.723 | 0.689 | 1.07 | 0.998 | 0.94 | 1.04 | 0.805 | 0.342 | 0.363 | 0.339 | 0.319 | 0.274 | –
16 | NCI-H2126 | 1.07 | 1.15 | 1.22 | 1.08 | 0.889 | 0.913 | 0.846 | 0.986 | 0.739 | 1.07 | 0.961 | 1.03 | 1.04 | 0.705 | 0.588 | 0.518 | 0.599 | 0.614 | 0.514 | 1.24
17 | RERF-LC-KJ | 1.02 | 1.16 | 1.18 | 1 | 0.432 | 0.462 | 0.518 | 0.426 | 0.452 | 0.636 | 0.936 | 1.15 | 0.945 | 0.584 | 0.715 | 0.746 | 0.647 | 0.62 | 0.572 | 1.02
18 | NCI-H1734 | 0.715 | 0.915 | 1.12 | 0.447 | 0.253 | 0.237 | 0.266 | 0.27 | 0.234 | 0.545 | 0.487 | 0.475 | 0.549 | 0.368 | 0.481 | 0.469 | 0.507 | 0.504 | 0.496 | 0.873
19 | NCI-H1651 | 0.874 | 0.908 | 1.01 | 0.809 | 0.689 | 0.611 | 0.683 | 0.793 | 0.379 | 0.438 | 0.467 | 0.472 | 0.467 | 0.304 | 0.644 | 0.604 | 0.587 | 0.597 | 0.526 | 0.858
20 | LC-2-ad | 0.799 | 1.03 | 1.22 | 0.827 | 0.489 | 0.487 | 0.468 | 0.425 | 0.418 | 0.777 | 0.725 | 0.866 | 0.966 | 0.613 | 0.866 | 0.903 | 0.875 | 0.794 | 0.642 | 1.05
21 | NCI-H460 | 0.799 | 1.3 | – | 0.184 | 0.272 | 0.57 | 0.392 | 0.409 | 0.252 | 0.769 | 0.604 | 0.712 | 0.6 | 0.482 | 0.581 | 0.445 | 0.555 | 0.572 | 0.157 | 0.718
22 | H3255 | 0.831 | 0.704 | 0.873 | 0.732 | 0.497 | 0.921 | 0.633 | 0.489 | 0.507 | 0.832 | 0.929 | 0.907 | 0.955 | 0.72 | 0.688 | 0.549 | 0.521 | 0.664 | 0.495 | 0.909
23 | NCI-H1437 | 0.398 | 0.476 | 0.484 | 0.351 | 0.399 | 0.35 | 0.433 | 0.43 | 0.36 | 1.25 | 1.32 | 1.21 | 1.14 | 1.04 | 0.568 | 0.62 | 0.616 | 0.613 | 0.39 | –
24 | LU99A | 1.11 | 1.05 | 1.14 | 0.904 | 0.299 | 0.272 | 0.268 | 0.307 | 0.197 | 0.345 | 0.367 | 0.403 | 0.398 | 0.294 | 1.18 | 0.988 | 0.763 | 0.989 | 0.907 | 1.23
25 | HCC-78 | 0.616 | 0.552 | 0.447 | 0.405 | 0.402 | 0.468 | 0.451 | 0.345 | 0.303 | 0.691 | 0.71 | 0.58 | 0.662 | 0.567 | 0.769 | 0.803 | 0.765 | 0.683 | 0.536 | 0.458
26 | NCI-H647 | 0.744 | 0.888 | 1.5 | 0.453 | 0.267 | – | 0.437 | 0.105 | 0.141 | 0.558 | 0.449 | 0.37 | 0.426 | 0.234 | 0.389 | 0.412 | 0.378 | 0.505 | 0.297 | 0.858
27 | NCI-H2405 | 0.969 | 0.999 | 0.732 | 0.814 | 0.777 | 0.767 | 0.749 | 0.601 | 0.618 | 0.901 | – | 0.725 | 0.74 | 0.55 | 0.785 | – | 0.8 | 0.724 | 0.617 | 0.872
